Experimental data published in patent US4968708A, “Imidazo[2,1-B]benzothiazole compounds and antiulcer compositions containing the same” (priority 1988, dated 1990).

Legend:
ethanol-induced ulcer = assay: Antiulcer activity against ethanol-induced ulcer model; format: in vivo, Wistar strain male rats; conditions: rats, 100 mg/kg p.o. 30 min before absolute ethanol 5 ml/kg p.o.; for Ethanol Induced Ulcer Ulcer Index: stomach excised 1 h later; for Ethanol Induced Ulcer Inhibition Rate: vs control group
Method: A suspension of each test compound in a 5% gum arabic aqueous solution was orally given to Wistar strain male rats (at the age of 7 to 8 weeks, weighing 180 to 250 g; 5 rats in the group administered with the test compound; 9 rats in the control group) fasted for […] at a dose of 100 mg of any the test compound/5 ml/kg. Thirty minutes after administration, absolute ethanol was further orally administered at a dose of 5 ml/kg. One hour after administration of absolute ethanol, the stomach was excised under ethereal anesthesia and spotted and linear erosion and a long diameter of ulcer were microscopically measured to determine an ulcer index and an inhibition rate.
(§1) In the control group, a 5% gum arabic aqueous solution was orally administered at a dose of 5 ml/kg.

ddy strain male mice = assay: Acute toxicity; format: in vivo; conditions: 7 days observation
Method: (§2) A suspension of each test compound in a 5% gum arabic aqueous solution was orally given to ddy strain male mice (at the age of 4 to 5 weeks, weighing 25 to 35 g; 2 to 9 mice in one group). For 7 days after the administration, the mice were observed as to if they were dead or alive. Based on the number of deaths, the LD50 value was determined by the Probit method.

Acute toxicity = format: in vivo; conditions: mouse, in vivo, po; mice, 7 days observation, Probit method
Method: as §2

gastric juice secretion = assay: Gastric juice secretion inhibition activity (pyloric ligature); format: in vivo, Wistar strain male rats; conditions: rats, 100 mg/kg p.o.; for inhibition in vivo at 100 mg/kg: Rattus norvegicus, po, read-out: Volume Inhibition Rate; for Volume (gastric juice): pyloric ligature 30 min later, gastric juice collected after 4 h; for pH (gastric juice): first part of Table 5
Method: A suspension of each test compound in a 5% gum arabic aqueous solution was orally given to Wistar strain male rats (at the age of 7 to 8 weeks, weighing 180 to 250 g; 7-9 rats in the group administered with the test compound; 14-17 rats in the control group) fasted for 24 hours at a dose of 100 mg of the test compound/5 ml/kg. Thirty minutes after administration, pyloric ligature was made under ethereal anesthesia. Four hours thereafter, the stomach was excised under ethereal anesthesia to collect gastric juice. The collected gastric juice was centrifuged (2500 rpm) at 4° C. for 10 minutes. After the supernatant was collected, the amount of the gastric juice and its pH were measured using a pH meter. Furthermore, the amount of free hydrochloric acid and the total acidity were measured with Topfer reagent and phenolphthalein reagent, respectively. Using a part of the gastric juice, pepsin output in the gastric juice was measured using casein as a substrate in a manner similar to the method of Anson et al.
as §1

aspirin-induced ulcer = assay: Antiulcer activity against aspirin-induced ulcer model; format: in vivo, Wistar strain male rats; conditions: rats, 100 mg/kg p.o. 30 min before aspirin 200 mg/kg p.o.; for inhibition in vivo at 100 mg/kg: Rattus norvegicus, po, 7 h, read-out: Aspirin Induced Ulcer Inhibition Rate; for Aspirin Induced Ulcer Ulcer Index: stomach excised 7 h after aspirin
Method: Thirty minutes after administration, aspirin was further orally administered at a dose of 200 mg/kg. Seven hours after administration of aspirin, the stomach was excised under ethereal anesthesia and spotted and linear erosion and a long diameter of any ulcer were microscopically measured to determine an ulcer index and an inhibition rate.
as §1

[1] = tested on: water-immersion stress ulcer; assay: Antiulcer activity against water-immersion stress ulcer; format: in vivo, Wistar strain male rats; conditions: rats; for inhibition in vivo at 100 mg/kg: Rattus norvegicus, po, 6 h, read-out: Water-Immersion Stress Ulcer Inhibition Rate; for Water-Immersion Stress Ulcer Ulcer Index: 100 mg/kg p.o. 30 min before 6 h water immersion at 22°±1° C.
Method: A suspension of each test compound in a 5% gum arabic aqueous solution was orally given to Wistar strain male rats (at the age of 7 to 8 weeks, weighing 180 to 250 g; 7-9 rats in the group administered with the test compound; 10-16 rats in the control group) fasted for 24 hours at a dose of 100 mg of the test compound/5 ml/kg. Thirty minutes after administration, the animal was immersed in a water bath at 22°±1° C. up to the xiphisternum using a stress cage made by Tokyo University, Faculty of Pharmacology, to apply a stress load for 6 hours. After applying the stress load, the rats had the cervical vertebra dislocated to death. Then, the stomach was excised and, spotted and linear erosion and a long diameter of any ulcer were microscopically measured to determine an ulcer index and an inhibition rate.
as §1

[2] = 4 h, pyloric ligature, 4 h, vs control group
[3] = 100 mg/kg p.o. 30 min before 6 h water immersion, vs control group

SMILES | Ethanol Induced Ulcer Ulcer Index (ethanol-induced ulcer) | Ethanol Induced Ulcer Inhibition Rate (ethanol-induced ulcer) | Mortality (No. death/No. treated) (ddy strain male mice; 2000 mg/kg p.o) | Mortality (No. death/No. treated) (ddy strain male mice; 2828 mg/kg p.o) | LD50 at 168 h (Acute toxicity) | inhibition in vivo at 100 mg/kg (gastric juice secretion; [2]) | Volume (gastric juice) (gastric juice secretion) | Acidity (gastric juice secretion; pyloric ligature, 4 h) | Free HCl (gastric juice secretion; pyloric ligature, 4 h) | Pepsin Activity (gastric juice secretion; pyloric ligature, 4 h) | Pepsin Output (gastric juice secretion; pyloric ligature, 4 h) | pH (gastric juice) (gastric juice secretion; pyloric ligature, 4 h) | inhibition in vivo at 100 mg/kg (aspirin-induced ulcer; vs control group) | Aspirin Induced Ulcer Ulcer Index (aspirin-induced ulcer) | inhibition in vivo at 100 mg/kg [1, 3] | Water-Immersion Stress Ulcer Ulcer Index [1] | further results
Cc1nc2sc3ccccc3n2c1CO [Example 1, 2-Methylimidazo[2,1-b]benzothiazole-3-methanol] | 4.9 ± 2.6 mm^2 | 94.3% | 0/4 | 1/5 | 3590 mg/kg | 52.5% | 2.8 ± 0.4 mL | 49.0 ± 5.9 mEq/l | 9.4 ± 3.1 mEq/l | 90.3 ± 5.9 units/ml | 59.6 ± 6.8 units/hr | 2.94 ± 0.30 | 59.4% | 23.3 ± 5.1 mm^2 | 80% | 4.3 ± 0.9 mm^2 | Mortality (No. death/No. treated) (ddy strain male mice; 4000 mg/kg p.o): 3/5; Mortality (No. death/No. treated) (ddy strain male mice; 4899 mg/kg p.o): 2/2
Cc1nc2sc3ccccc3n2c1CO.Cl [Example 2, 2-Methylimidazo[2,1-b]benzothiazole-3-methanol hydrochloride] | – | – | – | – | 2130 mg/kg | – | 2.8 ± 0.4 mL | 77.3 ± 4.5 mEq/l | 15.8 ± 4.5 mEq/l | 91.1 ± 8.3 units/ml | 58.4 ± 5.2 units/hr | 2.43 ± 0.20 | – | 36.0 ± 5.8 mm^2 | – | 4.6 ± 1.1 mm^2 | Mortality (No. death/No. treated) (ddy strain male mice; 1732 mg/kg p.o): 0/5; Mortality (No. death/No. treated) (ddy strain male mice; 2041 mg/kg p.o): 2/4; Mortality (No. death/No. treated) (ddy strain male mice; 2236 mg/kg p.o): 3/5; Mortality (No. death/No. treated) (ddy strain male mice; 2449 mg/kg p.o): 4/5; Volume Inhibition Rate (gastric juice secretion; pyloric ligature, 4 h, vs control group): 53.3%; Aspirin Induced Ulcer Inhibition Rate (aspirin-induced ulcer; vs control group): 46.1%; Water-Immersion Stress Ulcer Inhibition Rate [1, 3]: 80.3%
CCc1nc2sc3ccccc3n2c1CO [Example 8, 2-Ethylimidazo[2,1-b]benzothiazole-3-methanol] | 4.1 ± 2.2 mm^2 | 95.2% | – | – | – | – | – | – | – | – | – | – | – | – | 50.3% | 8.1 ± 2.2 mm^2 | –
COCc1c(C)nc2sc3ccccc3n12 [Example 12, 2-Methylimidazo[2,1-b]benzothiazole-3-methanol methyl ether] | – | – | 6/9 | 6/6 | 1770 mg/kg | 60.3% | 2.5 ± 0.1 mL | 66.7 ± 4.7 mEq/l | 23.2 ± 6.9 mEq/l | 90.7 ± 4.1 units/ml | 55.5 units/hr | 2.28 ± 0.26 | 34.5% | 49.9 ± 5.4 mm^2 | 83.3% | 2.2 ± 0.4 mm^2 | Mortality (No. death/No. treated) (ddy strain male mice; 1414 mg/kg p.o): 1/5
